# Assay results published in patent US20060235046A1, “Use of an epidermal growth factor receptor kinase inhibitor (EGFR) in gefitinib resistant patients” (Wyeth, priority 2005, published 2006).
# Legend:
# NSCLC = settings: in some cases; re-treatment when NSCLC recurs in patients treated with gefitinib; cited from earlier work
# [1] = system: non-small cell lung cancer (NSCLC); assay: Report on 2 patients with non-small cell lung cancer (NSCLC) who received EKB-569 after gefitinib and recurrence; assay type: in vivo, human; settings: two patients (Exon 19 del E746-A750, 25 mg/day for 9 months; Exon 21 L858R, 35 mg/day for 4 months) after treatment with gefitinib and recurrence of NSCLC
# Protocol: Report on 2 Patients with Non-Small Cell Lung Cancer (NSCLC) Who Received EKB-569.
# A person with a smoking history BI 720 […] having adenocarcinoma and cT0NOM1 (multiple pulmonary metastasis). Exon 19 deletion E746-A750 is identified. Herception test score was 0+ and EGFR score 2+. The patient was given 25 mg/day EKB-569 for 9 months.
# A person with a smoking history of BI 30 (10×3 years) having adenocarcinoma performance status 1, cT0N3M1 (pulmonary, brain and bone). Exon 21 point mutation L858R. HercepTest score +, EGFR score 3+, EKB-569 35 mg/day for 4 months.
# Phase 1 dose-escalation study of EKB-569 was completed in Japanese patients with advanced-stage malignancies known to overexpress EGFR.
SMILES,effectiveness of re-treatment in recurrent NSCLC (NSCLC),clinical effectiveness in NSCLC patients [1]
COc1cc2ncnc(Nc3ccc(F)c(Cl)c3)c2cc1OCCCN1CCOCC1 [gefitinib],effective,–
"CCOc1cc2ncc(C#N)c(Nc3ccc(F)c(Cl)c3)c2cc1NC(=O)C=CCN(C)C [EKB-569, 4-dimethylamino-but-2-enoic acid [4-(3-chloro-4-fluoro-phenylamino)-3-cyano-7-ethoxy-quinolin-6-yl]-amide]",–,effective
